Test systems include OVCAR-4 ovarian; MOLT-4 leukemia; SNB-75 CNS; HT29 colon; OVCAR-8 ovarian; OVCAR-5 ovarian; HL-60(TB) leukemia; NCI-H226 lung; 786-0 renal; TK-10 renal.
Common to all, as to test: NCI anticancer screen, dose series, 48 h

SMILES strings stand for the structures.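 Each compound was tested at five concentrations against cells in 96-well plates for 48 hours. GI50 = concentration required for 50% inhibition of growth. TGI is the concentration that stops growth completely.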

Take `CNC(=O)c1ccc(-c2cnc3ncc(Cc4ccc5ncccc5c4)n3n2)cc1F`: the GI50 in the assay with OVCAR-4 ovarian was > 100 µM; with MOLT-4 leukemia it was > 100 µM; with SNB-75 CNS, 12.7 µM; in the assay on HT29 colon, > 100 µM; in the assay with OVCAR-8 ovarian, 52.4 µM; in the assay with OVCAR-5 ovarian, > 100 µM. The GI50 in the assay on HL-60(TB) leukemia is > 100 µM; in the assay with NCI-H226 lung, 34.6 µM; in the assay with 786-0 renal, 64.3 µM; in the assay with TK-10 renal, > 100 µM. Moreover, the TGI in the assay on OVCAR-4 ovarian is > 100 µM; with MOLT-4 leukemia it was > 100 µM; with SNB-75 CNS, 54.8 µM; in the assay on HT29 colon it was > 100 µM; with OVCAR-8 ovarian, > 100 µM; with OVCAR-5 ovarian it was > 100 µM. The TGI in the assay with HL-60(TB) leukemia, in the assay on NCI-H226 lung, with 786-0 renal and in the assay on TK-10 renal was > 100 µM each time.

Regarding `C=CCOc1c(Br)cc(Br)cc1Br`, the GI50 was 13.6 µM with OVCAR-4 ovarian; 14.7 µM with MOLT-4 leukemia; 20.2 µM with SNB-75 CNS; 33 µM in the assay with HT29 colon; 28.2 µM with OVCAR-8 ovarian; 28.2 µM in the assay with OVCAR-5 ovarian. The GI50 in the assay with HL-60(TB) leukemia is 32.1 µM; in the assay with NCI-H226 lung, 24.8 µM; with 786-0 renal, 34.1 µM; in the assay on TK-10 renal, > 100 µM. Moreover, the TGI was 39.9 µM with OVCAR-4 ovarian; 99.1 µM in the assay with MOLT-4 leukemia; > 100 µM with SNB-75 CNS; > 100 µM with HT29 colon; > 100 µM with OVCAR-8 ovarian; > 100 µM in the assay on OVCAR-5 ovarian. In addition, the TGI in the assay with HL-60(TB) leukemia was 89.3 µM; with NCI-H226 lung it was > 100 µM; with 786-0 renal, > 100 µM; with TK-10 renal, > 100 µM.

Turning to `CC1=C(C)C(=O)O[C@@H]([C@](C)(O)[C@]2(O)CC[C@@]3(O)[C@@H]4C[C@H]5O[C@]56CC=CC(=O)[C@]6(C)[C@H]4CC[C@]23C)C1`, the GI50 in the assay with OVCAR-4 ovarian was 0.121 µM; in the assay with MOLT-4 leukemia, 0.0786 µM; in the assay with SNB-75 CNS, 0.0322 µM; in the assay with HT29 colon it was 0.066 µM; in the assay on OVCAR-8 ovarian, 0.231 µM; in the assay on OVCAR-5 ovarian, 0.299 µM. Moreover, the GI50 in the assay on HL-60(TB) leukemia was 0.0412 µM; with NCI-H226 lung it was 0.453 µM; in the assay with 786-0 renal, 0.284 µM; with TK-10 renal, 0.0482 µM. The TGI with OVCAR-4 ovarian is 15.8 µM; in the assay on MOLT-4 leukemia it was 35.2 µM; with SNB-75 CNS, 1.2 µM; in the assay on HT29 colon, 1.47 µM; in the assay with OVCAR-8 ovarian it was 4.86 µM; with OVCAR-5 ovarian, 2.51 µM. Moreover, the TGI in the assay on HL-60(TB) leukemia stood at 1.48 µM; with NCI-H226 lung, 4.49 µM; with 786-0 renal, 1.96 µM; in the assay with TK-10 renal, 0.995 µM.

For the compound `CNc1nc(NC2CCCC2)nc(Sc2ccc(OC)cc2)n1`, the GI50 in the assay with OVCAR-4 ovarian, with MOLT-4 leukemia, in the assay with SNB-75 CNS, in the assay on HT29 colon, in the assay with OVCAR-8 ovarian and in the assay on OVCAR-5 ovarian was > 10 µM each time. The GI50 with HL-60(TB) leukemia, with NCI-H226 lung, in the assay on 786-0 renal and in the assay on TK-10 renal was > 10 µM throughout. The TGI with OVCAR-4 ovarian, with MOLT-4 leukemia, in the assay with SNB-75 CNS, with HT29 colon, in the assay with OVCAR-8 ovarian and in the assay on OVCAR-5 ovarian was > 10 µM in each case. Moreover, the TGI in the assay with HL-60(TB) leukemia, in the assay with NCI-H226 lung, in the assay with 786-0 renal and in the assay on TK-10 renal was > 10 µM each time.

The values are drawn from PubChem BioAssay (NCI).
